Source: PMC9296478, “Discovery of a lectin domain that regulates enzyme activity in mouse N-acetylglucosaminyltransferase-IVa (MGAT4A)” (Communications Biology, 2022)

Columns and labels:
[1] = target: T1, soluble wild-type GnT-IVa enzyme (Mus musculus, UniProt Q812G0); test: HPLC assay of PA-labelled product; assay type: biochemical; conditions: 10 mM MnCl2, 125 mM MES pH 6.25, 200 mM GlcNAc, 37 °C
T1 construct: gene Mgat4a; luminal region, residues 60-526 (catalytic plus lectin domain), N-terminal His tag, secreted from COS7 cells (pcDNA-IH), Ni2+ column purified from medium
T1 sequence (Q812G0 60-526 isoform Q812G0-2 D445A): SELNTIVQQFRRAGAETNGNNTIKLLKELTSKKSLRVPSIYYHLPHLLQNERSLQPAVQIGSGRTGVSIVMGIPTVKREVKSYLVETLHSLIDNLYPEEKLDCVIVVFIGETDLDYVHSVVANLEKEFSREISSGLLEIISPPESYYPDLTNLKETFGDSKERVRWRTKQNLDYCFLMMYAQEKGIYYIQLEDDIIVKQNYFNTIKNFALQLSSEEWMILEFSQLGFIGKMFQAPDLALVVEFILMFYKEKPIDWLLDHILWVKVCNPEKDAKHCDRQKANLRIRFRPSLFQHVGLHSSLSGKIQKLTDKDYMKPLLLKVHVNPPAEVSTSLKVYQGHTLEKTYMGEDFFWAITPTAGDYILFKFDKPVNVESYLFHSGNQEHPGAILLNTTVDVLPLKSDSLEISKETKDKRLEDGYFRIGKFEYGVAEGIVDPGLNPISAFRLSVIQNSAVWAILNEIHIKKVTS

GnT-IVa lectin domain = target: T2, GnT-IVa lectin domain (Mus musculus, UniProt Q812G0); test: 1H-15N HSQC NMR titration (peak A); assay type: binding; conditions: 20 mM sodium phosphate pH 6.0, 298 K, 0.4 mM protein; read-out: dissociation constant
T2 construct: gene Mgat4a; C-terminal lectin domain, residues 382-526, expressed in E. coli BL21(DE3) RIPL as GST fusion (pGEX6P-1), GST cleaved by PreScission protease; 15N-labelled for NMR
T2 sequence (Q812G0 382-526 isoform Q812G0-2): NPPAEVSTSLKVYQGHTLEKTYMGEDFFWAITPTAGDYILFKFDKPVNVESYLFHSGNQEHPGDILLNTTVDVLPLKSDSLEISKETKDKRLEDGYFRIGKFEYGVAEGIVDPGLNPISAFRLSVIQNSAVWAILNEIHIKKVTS

Compound | Kd (GnT-IVa lectin domain) | other results
CC(=O)N[C@H]1[C@@H](OP(=O)(O)OP(=O)(O)OC[C@H]2O[C@@H](n3ccc(=O)[nH]c3=O)[C@H](O)[C@@H]2O)O[C@H](CO)[C@@H](O)[C@@H]1O [UDP-GlcNAc] |  | Km ([1]; 10 μM GnGnbi-PA, 0.625-20 mM UDP-GlcNAc): 3950 µM
CC(=O)N[C@H]1C(O)O[C@H](CO)[C@@H](O)[C@@H]1O (stereo partly shown) [GlcNAc] | 3100 µM | 
CC(=O)N[C@H]1[C@H](O[C@@H]([C@H](O)[C@H](CNc2ccccn2)NC(C)=O)[C@H](O)CO)O[C@H](CO)[C@@H](O[C@@H]2O[C@H](CO[C@H]3O[C@H](CO)[C@@H](O)[C@H](O)[C@@H]3O[C@@H]3O[C@H](CO)[C@@H](O)[C@H](O)[C@H]3NC(C)=O)[C@@H](O)[C@H](O[C@H]3O[C@H](CO)[C@@H](O)[C@H](O)[C@@H]3O[C@@H]3O[C@H](CO)[C@@H](O)[C@H](O)[C@H]3NC(C)=O)[C@@H]2O)[C@@H]1O [GnGnbi-PA] |  | Km ([1]; 20 mM UDP-GlcNAc, 32-640 μM acceptor, labelled compound): 1250 µM
CC(=O)N[C@H]1[C@H](O[C@@H]2C(O)O[C@H](CO)[C@@H](O)[C@@H]2O)O[C@H](CO)[C@@H](O)[C@@H]1O (stereo partly shown) [GlcNAcβ1-2Man] | 320 µM | 
